Laboratory results from paper PMC7440915, “Discovery of surrogate agonists for visceral fat Treg cells that modulate metabolic indices in vivo” (eLife, 2020).
Where no end group is shown, it is not given here.

Tested on: endogenous Treg cells
Assay: Endogenous Fat1562/A^b tetramer^+ Treg cells and scTCR-seq after immunization of wild-type B6 mice
Format: in vivo, mouse
From the text: We next investigated whether Fat1562 immunization of wild-type B6 mice would elicit expansion of particular Treg clones in VAT, and whether their TCRs would resemble the vTreg53 TCR. 16–20 week-old B6 mice were immunized with Fat1562 using the prime and boost scheme (Figure 4—figure supplement 1A), and the Fat1562-reactive CD4^+ T cells were characterized by staining with the Fat1562/A^b-PE tetramer. […] We then sorted individual Fat1562/A^b tetramer^+ Treg cells from the spleen and VAT of these 3 mice into 96-well plates, and determined the sequences of their TCR-β and TCR-α complementarity-determining region (CDR)3 s. […] Within each mouse, the Spl/LNs and VAT Treg clones had the same CDR3α and CDR3β. […] Therefore, although with some degree of variability, Fat1562 was able to expand an endogenous Treg population that highly resembled the original vTreg53 VAT-Treg clone.
Foxp3^+CD4^+ TCRβ^+ Fat1562/A^b-PE^+ Treg cells from VAT or pooled Spl/LN of 16–20 week-old Foxp3-GFP mice were first sorted in bulk before resorting as individual cells using a MoFlo (Beckman Coulter) into wells of 96-well PCR plates containing the reverse transcriptase reaction mix, and cDNA was prepared as described previously ([Burzyn et al., 2013]). Extreme caution was taken to minimize contamination of wells. […]

TMYKNPRPMAATG [Fat1562] was tested, and the “mice with detectable expansion of Fat1562/A^b tetramer^+ Treg population” value (out of the 10 mice immunized, Spl/LN and VAT, 16–20 week-old B6) was “three” and the “clonality of Fat1562/A^b tetramer^+ Treg population” value (three mice, scTCR-seq of CDR3α/β) was “almost entirely monoclonal”.
